From patent publication US20240174618A1, “SUBSTITUTED (2-HETEROARYLOXYPHENYL)SULFONATES, SALTS THEREOF AND THEIR USE AS HERBICIDAL AGENTS” (Bayer Aktiengesellschaft, priority 2021, published 2024)

Assays:
Assay type in all cases: in vivo
Poa annua (POAAN) = experiment: A. Herbicidal pre-emergence efficacy, POAAN
Outline: (§1)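 Applied before emergence onto covering soil at rates of 1280 g/ha or less, using 600 L/ha spray water with 0.5% additive. Scoring: visual % efficacy after ~3 weeks, greenhouse.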

[1] = test system: Pharbitis purpurea (PHBPU); experiment: E. Herbicidal post-emergence efficacy, PHBPU
Experimental: Seeds of monocotyledonous and dicotyledonous weeds and crop plants were placed in sandy loam in plastic or organic planting pots, covered with soil and cultivated in a greenhouse under controlled growth conditions. 2 to 3 weeks after sowing, the test plants were treated at the one-leaf stage. The compounds of the invention, formulated in the form of wettable powders (WP) or as emulsion concentrates (EC), were then sprayed onto the green parts of the plants as aqueous suspension or emulsion with addition of 0.5% additive at a water application rate of 600 l/ha (converted). After the test plants had been kept in the greenhouse under optimum growth conditions for about 3 weeks, the activity of the preparations was rated visually in comparison to untreated controls.
For example, • 100% efficacy=plants have died, • 0% action=like untreated control plants.
Tables E1a to E12b below show the effects of selected compounds of the general formula (I) according to table 1 on various harmful plants at an application rate corresponding to 320 g/ha or less, which were obtained by the experimental procedure mentioned above.

[2] = test system: Echinochloa crus-galli (ECHCG); experiment: C. Herbicidal pre-emergence efficacy, ECHCG; conditions: scored after about 3 weeks
Description: Seeds of monocotyledonous and dicotyledonous weed plants and crop plants were placed in plastic or organic planting pots and covered with soil. The compounds of the invention, formulated in the form of wettable powders (WP) or as emulsion concentrates (EC), were then applied to the surface of the covering soil as aqueous suspension or emulsion with addition of 0.5% additive at a water application rate equivalent to 600 l/ha (converted). After the treatment, the pots were placed in a greenhouse and kept under good growth conditions for the test plants. After about 3 weeks, the efficacy of the preparations was scored visually in comparison with untreated controls as percentages. For example, • 100% efficacy=plants have died, • 0% efficacy=like untreated control plants.
Tables C1a to C14b below show the effects of selected compounds of the general formula (I) according to table 1 on various harmful plants at an application rate corresponding to 320 g/ha or less, which were obtained by the experimental procedure mentioned above.

Setaria viridis (SETVI) [3] = experiment: A. Herbicidal pre-emergence efficacy, SETVI
Outline: as §1

[4] = test system: Amaranthus retroflexus (AMARE); experiment: E. Herbicidal post-emergence efficacy, AMARE
Outline: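 Visual scoring against untreated plants was done roughly 3 weeks after spraying (0% = no effect, 100% = plants dead). Spray application at 320 g/ha or lower, 600 l/ha water with 0.5% additive, was made onto green parts of one-leaf-stage greenhouse plants grown 2-3 weeks in sandy loam.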

Setaria viridis (SETVI) [5] = experiment: B. Herbicidal post-emergence efficacy, SETVI
Outline: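 Weeds grown in sandy loam in greenhouse and sprayed at the one-leaf stage, 2–3 weeks after sowing, with WP or EC formulations plus 0.5% additive at 600 L/ha water. Injury rated visually versus untreated controls after about 3 weeks (100% = dead, 0% = like control); rates up to 1280 g/ha.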

[6] = test system: Digitaria sanguinalis (DIGSA); experiment: A. Herbicidal pre-emergence efficacy, DIGSA; conditions: scored visually after about 3 weeks vs untreated controls
Outline: as §1

SMILES | Pre-emergence efficacy against POAAN (Poa annua (POAAN); dosage 80 g/ha) | Pre-emergence efficacy against POAAN (Poa annua (POAAN); dosage 320 g/ha) | Pre-emergence efficacy against POAAN (Poa annua (POAAN); dosage 1280 g/ha) | Post-emergence efficacy against PHBPU in % ([1]; application rate 320 g/ha) | Pre-emergence efficacy against ECHCG ([2]; 80 g/ha) | Pre-emergence efficacy against ECHCG ([2]; 320 g/ha) | Pre-emergence efficacy against SETVI (Setaria viridis (SETVI) [3]; dosage 80 g/ha) | Pre-emergence efficacy against SETVI (Setaria viridis (SETVI) [3]; dosage 320 g/ha) | Pre-emergence efficacy against SETVI (Setaria viridis (SETVI) [3]; dosage 1280 g/ha) | Post-emergence efficacy against AMARE in % ([4]; application rate 80 g/ha) | Post-emergence efficacy against AMARE in % ([4]; application rate 320 g/ha) | Post-emergence efficacy against SETVI (Setaria viridis (SETVI) [5]; 320 g/ha) | Post-emergence efficacy against SETVI (Setaria viridis (SETVI) [5]; 1280 g/ha) | Post-emergence efficacy against PHBPU in % ([1]; application rate 80 g/ha) | Pre-emergence efficacy against DIGSA ([6]; 1280 g/ha) | Pre-emergence efficacy against DIGSA ([6]; 80 g/ha) | Pre-emergence efficacy against DIGSA ([6]; 320 g/ha)
O=S(=O)(CCCCl)Oc1ccccc1Oc1ncc(Cl)cn1 [Example I-2] | 100% | 100% | 100% | 100% | 90% | 100% | 100% | 100% | 100% | 100% | 100% | 100% | 100% |  |  |  | 
CCCS(=O)(=O)Oc1ccccc1Oc1ncc(Cl)cn1 [Example I-3] | 90% | 100% | 100% | 90% | 90% | 100% | 100% | 100% | 100% |  | 100% |  | 90% |  |  |  | 
O=S(=O)(CCCCl)Oc1ccccc1Oc1ncc(F)cn1 [Example I-5] | 90% | 100% | 100% | 80% | 100% | 100% | 100% | 100% | 100% | 100% | 100% | 90% | 100% |  |  |  | 
CCCCS(=O)(=O)Oc1ccccc1Oc1ncc(Cl)cn1 [Example I-6] |  | 90% | 90% | 100% | 100% | 100% | 90% | 90% | 100% | 90% | 100% |  | 90% | 80% |  |  | 
CC(C)CS(=O)(=O)Oc1ccccc1Oc1ncc(Cl)cn1 [Example I-7, [2-(5-Chloropyrimidin-2-yl)oxyphenyl] 2-methylpropane-1-sulfonate] | 100% | 100% | 100% | 90% | 100% | 100% | 100% | 100% | 100% | 90% | 100% |  | 90% |  |  |  | 
O=S(=O)(CCC(F)(F)F)Oc1ccccc1Oc1ncc(Cl)cn1 [Example I-8] | 90% | 100% | 100% | 100% | 100% | 100% | 100% | 100% | 100% | 100% | 100% | 90% | 90% |  |  |  | 
O=S(=O)(CCl)Oc1ccccc1Oc1ncc(Cl)cn1 [Example I-9] |  | 90% | 100% |  |  | 90% |  | 100% | 100% | 100% | 100% |  | 90% |  |  |  | 
O=S(=O)(CCCC(F)(F)F)Oc1ccccc1Oc1ncc(Cl)cn1 [Example I-10] | 100% | 100% | 100% | 100% | 100% | 100% | 90% | 90% | 100% | 100% | 100% | 100% | 100% | 100% |  |  | 
Cc1cccc(OS(=O)(=O)CCCCl)c1Oc1ncc(Cl)cn1 [Example I-12] |  | 100% | 100% | 90% | 90% | 90% |  | 100% | 100% | 90% | 90% |  | 90% | 90% |  |  | 
O=S(=O)(CCCCl)Oc1cccc(F)c1Oc1ncc(Cl)cn1 [Example I-13] |  | 90% | 100% |  |  | 80% |  |  | 100% |  | 80% |  |  |  | 100% |  | 
O=S(=O)(CCCCl)Oc1c(F)cccc1Oc1ncc(Cl)cn1 [Example I-14] | 100% | 100% | 100% | 100% | 100% | 100% | 100% | 100% | 100% | 100% | 100% | 90% | 100% | 100% | 100% | 100% | 100%
O=S(=O)(CCCCCl)Oc1ccccc1Oc1ncc(Cl)cn1 [Example I-15] | 100% | 100% | 100% | 100% |  | 90% | 100% | 100% | 100% | 100% | 100% |  | 100% | 90% |  |  | 
CCS(=O)(=O)Oc1ccccc1Oc1ncc(Cl)cn1 [Example I-16] |  | 100% | 100% |  |  |  |  | 100% | 100% |  |  |  | 90% |  | 100% |  | 100%
Cc1cccc(Oc2ncc(Cl)cn2)c1OS(=O)(=O)CCCC(F)(F)F [Example I-28, 2-[(5-Chloropyrimidin-2-yl)oxy]-6-methylphenyl 4,4,4-trifluorobutane-1-sulfonate] | 90% | 100% | 100% |  |  |  | 100% | 100% | 100% |  |  | 90% | 90% |  | 100% | 90% | 100%
Cc1cccc(Oc2ncc(Cl)cn2)c1OS(=O)(=O)CCC(F)(F)F [Example I-29] | 90% | 100% | 100% |  |  |  |  | 100% | 100% |  |  | 100% | 100% |  | 100% | 90% | 100%
O=S(=O)(CCC(F)(F)F)Oc1c(Br)cccc1Oc1ncc(Cl)cn1 [Example I-31] | 90% | 100% | 100% |  |  |  |  | 100% | 100% |  |  |  | 90% |  | 100% |  | 90%
